Laboratory results from ChEMBL document CHEMBL1149522, “Synthesis of 3H-spiro[benzofuran-2,1'-cyclohexane] derivatives from naturally occurring filifolinol and their classical complement pathway inhibitory activity” (Bioorg Med Chem Lett, 2006).
Values joined by “and” are separate entries in the source; they are usually repeats but may differ in a detail not shown here. Equal entries are not always repeated.

The compounds below were run on RBCs (assay: Inhibition of complement-induced hemolysis in sensitized sheep erythrocytes). Settings: Ovis aries, Erythrocyte.
Type: functional, cell-based

SMILES | IC50
COc1cc(C(=O)[O-])cc2c1CC1(CCCCC1)O2.[Na+] | 820 µM and 214 µg/mL
C[C@@H]1CCC2C(C)(C)[C@H](O)[C@H](O)C[C@]2(C)[C@@]12Cc1c(O)cc(C(=O)[O-])c(C=O)c1O2.[Na+] (stereo partly specified) | 570 µM and 238 µg/mL
C[C@H]1CC[C@@H](O)C(C)(C)[C@@]12Cc1cc(C(=O)[O-])cc(Br)c1O2.[Na+] | 950 µM and 350 µg/mL
C[C@H]1CC[C@@H](O)C(C)(C)[C@@]12Cc1cc(O)ccc1O2 | 455 µM and 260 µg/mL
C[C@H]1CC[C@@H](O)C(C)(C)[C@@]12Cc1cc(C(=O)[O-])ccc1O2.[Na+] | 2 mM and 580 µg/mL
C[C@H]1CC[C@@H](O)C(C)(C)[C@@]12Cc1cc(C(=O)[O-])cc(C#N)c1O2.[Na+] | 1.32 mM and 415 µg/mL
CC(=O)c1c(O)ccc2c1C[C@@]1(O2)[C@@H](C)CC[C@@H](O)C1(C)C | 1.07 mM and 320 µg/mL
COc1ccc(C(=O)[O-])c2c1CC1(CCCCC1)O2.[Na+] | 1.3 mM and 341 µg/mL
C[C@]1(O)CC[C@@H]([C@]2(C)Cc3c(O)ccc(C(=O)[O-])c3O2)C[C@H]1O.[Na+] | 1.6 mM and 515 µg/mL
COc1cc(C(=O)[O-])c(C=O)c2c1CC1(CCCCC1)O2.[Na+] | 160 µM and 44 µg/mL

What follows are compounds tested on RBCs (assay: Inhibition of complement-induced hemolysis in sensitized sheep erythrocytes at 253 ug/ml). Settings: Ovis aries, Erythrocyte.
Type: functional

SMILES | inhibition at 253 µg/mL [%]
CC(=O)c1cc2c(cc1O)C[C@@]1(O2)[C@@H](C)CC[C@@H](O)C1(C)C | 17
